Laboratory results taken from patent US12060368B2, “Selenophenochromene hydroxamic acids, preparation and use as angiogenesis inhibitors” (Latvian Institute of Organic Synthesis, priority 2018, dated 2024).
Counter-ions that a name gives are not always drawn.

Key:
MMP 1 = target: T1, MMP 1 (Homo sapiens, UniProt P03956); assay: MMP Inhibitor Fluorimetric Profiling kit, MMP 1; format: biochemical; settings: for IC50: read-out: MMP 1 inhibition IC50; for inhibition at 20 µM: test compound 20 μM
T1 construct: recombinant human MMP-1-10, 12, 13 and 14 catalytic domains; purchased Biornol, USA
T1 sequence (P03956 98-276 limits assumed): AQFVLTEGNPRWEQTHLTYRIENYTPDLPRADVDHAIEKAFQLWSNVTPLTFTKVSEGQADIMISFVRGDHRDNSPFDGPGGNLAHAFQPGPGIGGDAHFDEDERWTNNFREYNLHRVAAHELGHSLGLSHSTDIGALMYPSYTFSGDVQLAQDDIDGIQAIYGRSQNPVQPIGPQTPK
Protocol: (§1) Inhibition of matrix metalloproteinase enzymes by synthesized selenopheno[3,2-h]chromenes I-1-I-4 was detected on MMP Inhibitor Fluorimetric Profiling kit using NNGH (N-isobutyl-N-4-methoxyphenylsulfonyl)glycyl-hydroxamic acid) as a standard.
(§2) MMP assay: Inhibitors of matrix metalloproteinase enzymes were detected with the use of MMP Inhibitor Fluorimetric Profiling kit (Biornol, USA) accordingly to manufacturer's instructions. MMP activity assays were performed in 96-well plates using the recombinant human MMP-1-10, 12, 13 and 14 catalytic domains and OmniMMP™ fluorogenic substrate SEQ ID No 1: Mca-Pro-Leu-Gly-Leu-Dpa-Ala-Arg-NH2. The test compounds (20 μM) were dissolved in DMSO. The compound NNGH (N-isobutyl-N-(4-methoxyphenylsulfonyl)-glycylhydroxamic acid) was used as a prototypic control inhibitor. The rate of substrate hydrolysis was determined by fluorescence intensity measuring for 10 minutes at 37° C. temperature using a fluorescence plate reader (Tecan infinite M1000, Austria) with excitation at 328 nm and emission at 420 nm. Data analysis was performed using program Graph Pad Prism® 3.0.

MMP 2 = target: T2, MMP 2 (Homo sapiens, UniProt P08253); assay: MMP Inhibitor Fluorimetric Profiling kit, MMP 2; format: biochemical; settings: for IC50: read-out: MMP 2 inhibition IC50; for inhibition at 20 µM: test compound 20 μM
T2 construct: recombinant human MMP-1-10, 12, 13 and 14 catalytic domains; purchased Biornol, USA
Protocol: as §1, §2

MMP 3 = target: T3, MMP 3 (Homo sapiens, UniProt P08254); assay: MMP Inhibitor Fluorimetric Profiling kit, MMP 3; format: biochemical; settings: for IC50: ne = no effect, read-out: MMP 3 inhibition IC50; for inhibition at 20 µM: test compound 20 μM
T3 construct: recombinant human MMP-1-10, 12, 13 and 14 catalytic domains; purchased Biornol, USA
Protocol: as §1, §2

MMP 7 = target: T4, MMP 7 (Homo sapiens, UniProt P09237); assay: MMP Inhibitor Fluorimetric Profiling kit, MMP 7; format: biochemical; settings: for inhibition at 20 µM: test compound 20 μM
T4 construct: recombinant human MMP-1-10, 12, 13 and 14 catalytic domains; purchased Biornol, USA
T4 sequence (P09237 95-267): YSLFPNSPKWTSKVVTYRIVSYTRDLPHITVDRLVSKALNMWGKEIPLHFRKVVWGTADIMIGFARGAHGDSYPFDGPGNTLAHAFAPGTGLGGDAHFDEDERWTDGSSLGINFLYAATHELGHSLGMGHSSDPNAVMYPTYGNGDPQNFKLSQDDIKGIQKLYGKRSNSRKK
Protocol: as §1, §2

MMP 8 = target: T5, MMP 8 (Homo sapiens, UniProt P22894); assay: MMP Inhibitor Fluorimetric Profiling kit, MMP 8; format: biochemical; settings: for IC50: read-out: MMP 8 inhibition IC50; for inhibition at 20 µM: test compound 20 μM
T5 construct: recombinant human MMP-1-10, 12, 13 and 14 catalytic domains; purchased Biornol, USA
Protocol: as §1, §2

MMP 9 = target: T6, MMP 9 (Homo sapiens, UniProt P14780); assay: MMP Inhibitor Fluorimetric Profiling kit, MMP 9; format: biochemical; settings: for IC50: read-out: MMP 9 inhibition IC50; for inhibition at 20 µM: test compound 20 μM
T6 construct: recombinant human MMP-1-10, 12, 13 and 14 catalytic domains; purchased Biornol, USA
Protocol: as §1, §2

MMP 10 (stromelysin 2) = target: T7, MMP 10 (stromelysin 2) (Homo sapiens, UniProt P09238); assay: MMP Inhibitor Fluorimetric Profiling kit, MMP 10; format: biochemical; settings: for IC50: read-out: MMP 10 inhibition IC50; for inhibition at 20 µM: test compound 20 μM
T7 construct: recombinant human MMP-1-10, 12, 13 and 14 catalytic domains; purchased Biornol, USA
Protocol: as §1, §2

MMP 12 = target: T8, MMP 12 (Homo sapiens, UniProt P39900); assay: MMP Inhibitor Fluorimetric Profiling kit, MMP 12; format: biochemical; settings: for MMP 12 inhibition IC50: ne = no effect; for inhibition at 20 µM: test compound 20 μM
T8 construct: recombinant human MMP-1-10, 12, 13 and 14 catalytic domains; purchased Biornol, USA
Protocol: as §1, §2

MMP 13 = target: T9, MMP 13 (Homo sapiens, UniProt P45452); assay: MMP Inhibitor Fluorimetric Profiling kit, MMP 13; format: biochemical; settings: for MMP 13 inhibition IC50 / IC50: ne = no effect; for inhibition at 20 µM: test compound 20 μM; for IC50: read-out: MMP 13 inhibition IC50
T9 construct: recombinant human MMP-1-10, 12, 13 and 14 catalytic domains; purchased Biornol, USA
Protocol: as §1, §2

MMP 14 = target: T10, MMP 14 (Homo sapiens, UniProt P50281); assay: MMP Inhibitor Fluorimetric Profiling kit, MMP 14; format: biochemical; settings: for IC50: read-out: MMP 14 inhibition IC50; for inhibition at 20 µM: test compound 20 μM
T10 construct: recombinant human MMP-1-10, 12, 13 and 14 catalytic domains; purchased Biornol, USA
Protocol: as §1, §2

T3 sequence (P08254 100-272 limits assumed): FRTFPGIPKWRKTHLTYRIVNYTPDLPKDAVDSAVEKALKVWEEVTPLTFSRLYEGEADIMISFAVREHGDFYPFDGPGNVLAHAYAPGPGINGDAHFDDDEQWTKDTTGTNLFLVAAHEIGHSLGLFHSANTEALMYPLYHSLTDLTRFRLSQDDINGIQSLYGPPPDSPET
T7 sequence (P09238 99-263 limits assumed): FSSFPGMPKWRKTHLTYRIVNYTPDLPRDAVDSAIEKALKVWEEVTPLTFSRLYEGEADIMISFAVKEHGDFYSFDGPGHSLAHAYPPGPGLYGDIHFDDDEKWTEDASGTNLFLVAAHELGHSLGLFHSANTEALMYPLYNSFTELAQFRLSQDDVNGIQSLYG
T2 sequence (P08253 110-446 limits assumed): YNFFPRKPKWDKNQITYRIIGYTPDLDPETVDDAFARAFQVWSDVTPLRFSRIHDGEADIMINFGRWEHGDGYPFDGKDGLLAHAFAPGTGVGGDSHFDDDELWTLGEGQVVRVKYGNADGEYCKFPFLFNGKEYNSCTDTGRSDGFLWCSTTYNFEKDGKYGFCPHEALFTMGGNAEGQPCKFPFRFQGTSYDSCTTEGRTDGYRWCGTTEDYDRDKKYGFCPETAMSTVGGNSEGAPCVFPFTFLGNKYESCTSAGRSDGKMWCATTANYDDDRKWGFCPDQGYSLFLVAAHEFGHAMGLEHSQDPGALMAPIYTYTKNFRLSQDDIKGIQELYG
T8 sequence (P39900 106-263 limits assumed): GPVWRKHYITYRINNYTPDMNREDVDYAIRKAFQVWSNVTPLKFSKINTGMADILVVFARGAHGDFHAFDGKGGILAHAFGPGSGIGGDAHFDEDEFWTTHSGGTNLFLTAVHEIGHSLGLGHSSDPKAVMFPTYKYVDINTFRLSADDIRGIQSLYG
T5 sequence (P22894 100-262 limits assumed): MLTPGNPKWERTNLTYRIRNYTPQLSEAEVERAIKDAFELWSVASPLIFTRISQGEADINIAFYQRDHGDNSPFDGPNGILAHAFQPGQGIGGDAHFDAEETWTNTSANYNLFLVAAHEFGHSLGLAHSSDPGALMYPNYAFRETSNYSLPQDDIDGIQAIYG
T6 sequence (P14780 107-444 limits assumed): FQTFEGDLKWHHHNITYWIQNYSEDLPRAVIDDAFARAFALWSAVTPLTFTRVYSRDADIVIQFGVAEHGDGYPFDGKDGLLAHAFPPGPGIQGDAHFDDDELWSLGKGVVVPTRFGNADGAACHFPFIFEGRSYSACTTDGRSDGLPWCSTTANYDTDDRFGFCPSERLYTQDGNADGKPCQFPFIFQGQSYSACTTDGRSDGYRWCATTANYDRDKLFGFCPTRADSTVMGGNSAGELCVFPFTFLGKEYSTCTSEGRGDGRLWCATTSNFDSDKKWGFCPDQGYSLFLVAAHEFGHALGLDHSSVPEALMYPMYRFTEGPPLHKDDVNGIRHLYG

SMILES | melting point | IC50 (MMP 1; ne = no effect) | inhibition at 20 µM (MMP 1) | IC50 (MMP 2; ne = no effect) | inhibition at 20 µM (MMP 2) | IC50 (MMP 3) | inhibition at 20 µM (MMP 3) | inhibition at 20 µM (MMP 7) | IC50 (MMP 8; ne = no effect) | inhibition at 20 µM (MMP 8) | IC50 (MMP 9; ne = no effect) | inhibition at 20 µM (MMP 9) | IC50 (MMP 10 (stromelysin 2); ne = no effect) | inhibition at 20 µM (MMP 10 (stromelysin 2)) | MMP 12 inhibition IC50 (MMP 12) | inhibition at 20 µM (MMP 12) | inhibition at 20 µM (MMP 13) | IC50 (MMP 14; ne = no effect) | inhibition at 20 µM (MMP 14) | MMP 7 inhibition IC50 (MMP 7; ne = no effect) | other results
CN1CCN(Cc2[se]c3c(ccc4cc(C(=O)NO)c(=O)oc43)c2Br)CC1 (as salt: hydrochloride) [Compound I-1, 7-Bromo-N-hydroxy-8-((4-methylpiperazin-1-yl)methyl)-2-oxo-2H-selenopheno[3,2-h]chromene-3-carboxamide hydrochloride] | > 200 °C |  |  |  |  |  |  |  |  |  |  |  |  |  |  |  |  |  |  |  | 
O=C(NO)c1cc2ccc3c(Br)c(CN4CCNCC4)[se]c3c2oc1=O (as salt: hydrochloride) [Compound I-2, 7-Bromo-N-hydroxy-2-oxo-8-(piperazin-1-ylmethyl)-2H-selenopheno[3,2-h]chromene-3-carboxamide hydrochloride] | > 200 °C |  |  |  |  |  |  |  |  |  |  |  |  |  |  |  |  |  |  |  | 
O=C(NO)c1cc2ccc3c(Br)c(CCN4CCNCC4)[se]c3c2oc1=O (as salt: hydrochloride) [Compound I-3, 7-Bromo-N-hydroxy-2-oxo-8-(2-(piperazin-1-yl)ethyl)-2H-selenopheno[3,2-h]chromene-3-carboxamide hydrochloride] | > 200 °C |  |  |  |  |  |  |  |  |  |  |  |  |  |  |  |  |  |  |  | 
CN1CCN(Cc2[se]c3c(ccc4cc(C(=O)NO)c(=O)oc43)c2Br)CC1 [Compound I-1, 7-Bromo-N-hydroxy-8-((4-methylpiperazin-1-yl)methyl)-2-oxo-2H-selenopheno[3,2-h]chromene-3-carboxamide hydrochloride] |  | > 20 µM | 29 ± 2% | 20 µM | 51 ± 2% | > 20 µM | 34 ± 2% | 28 ± 2% | 20 µM | 56 ± 2% | > 20 µM | 35 ± 5% | 1.92 µM | ≤ 97% | ne | 0% | 0% | 18 ± 2 µM | 58 ± 2% |  | IC50 (MMP 7; ne = no effect, read-out: MMP 7 inhibition IC50): > 20 µM; MMP 13 inhibition IC50 (MMP 13): ne
O=C(NO)c1cc2ccc3c(Br)c(CN4CCNCC4)[se]c3c2oc1=O [Compound I-2, 7-Bromo-N-hydroxy-2-oxo-8-(piperazin-1-ylmethyl)-2H-selenopheno[3,2-h]chromene-3-carboxamide hydrochloride] |  | 5.93 ± 0.54 µM | 94 ± 1% | 1.57 ± 0.18 µM | 98 ± 1% | > 20 µM | 31 ± 7% | 20 ± 1% | 1.64 ± 0.25 µM | 100 ± 1% | 1.48 ± 0.11 µM | 100 ± 1% | 1.37 ± 0.85 µM | 99% | ne | 5 ± 1% | 98 ± 1% | 4.35 ± 1.02 µM | 98 ± 2% | ne | MMP 1 inhibition IC50 (MMP 1; ne = no effect): 1.37+6.27 μM; MMP 2 inhibition IC50 (MMP 2; ne = no effect): 1.37+6.27 μM; MMP 8 inhibition IC50 (MMP 8; ne = no effect): 1.37+6.27 μM; MMP 9 inhibition IC50 (MMP 9; ne = no effect): 1.37+6.27 μM; MMP 10 inhibition IC50 (MMP 10 (stromelysin 2); ne = no effect): 1.37+6.27 μM; MMP 13 inhibition IC50 (MMP 13): 1.37+6.27 μM; IC50 (MMP 13): 6.27 ± 0.65 µM; MMP 14 inhibition IC50 (MMP 14; ne = no effect): 1.37+6.27 μM
O=C(NO)c1cc2ccc3c(Br)c(CCN4CCNCC4)[se]c3c2oc1=O [Compound I-3, 7-Bromo-N-hydroxy-2-oxo-8-(2-(piperazin-1-yl)ethyl)-2H-selenopheno[3,2-h]chromene-3-carboxamide hydrochloride] |  | 6.66 ± 0.85 µM | 94 ± 2% | 1.13 ± 0.08 µM | 100 ± 1% | > 20 µM | 35 ± 5% | 20 ± 3% | 1.61 ± 0.14 µM | 100 ± 1% | 1.06 ± 0.07 µM | 99 ± 1% | 0.96 µM | 100 ± 1% | ne | 0% | 97 ± 4% | 3.88 ± 0.99 µM | 99 ± 4% | ne | IC50 (MMP 13): 4.95 ± 1.05 µM
O=C(NO)c1cc2ccc3c(Br)c(CN4CCCNCC4)[se]c3c2oc1=O [Compound I-4, 8-((1,4-Diazepan-1-yl)methyl)-7-bromo-N-hydroxy-2-oxo-2H-selenopheno[3,2-h]chromene-3-carboxamide hydrochloride] |  | 5.21 ± 0.62 µM | 99 ± 8% | 1.86 ± 0.21 µM | 99 ± 6% | > 20 µM | 34 ± 8% | 16 ± 3% | 1.86 ± 0.22 µM | 100 ± 9% | 1.92 ± 0.31 µM | 99 ± 6% | 1.71 ± 0.18 µM | 99 ± 8% | ne | 7 ± 3% | 95 ± 8% | 4.04 ± 0.97 µM | 99 ± 7% | ne | IC50 (MMP 13): 4.74 ± 0.95 µM
COc1ccc(S(=O)(=O)N(CC(=O)NO)CC(C)C)cc1 [NNGH, N-isobutyl-N-(4-methoxyphenylsulfonyl)-glycylhydroxamic acid, reference compound] |  |  |  |  |  |  |  |  |  |  |  |  |  |  |  |  |  |  |  |  | MMP 1 inhibition (MMP 1; control inhibitor 1.3 μM): 100%; MMP 2 inhibition (MMP 2; control inhibitor 1.3 μM): 100%; MMP 3 inhibition (MMP 3; control inhibitor 1.3 μM): 100%; MMP 7 inhibition (MMP 7; control inhibitor 1.3 μM): 7.2%; MMP 8 inhibition (MMP 8; control inhibitor 1.3 μM): 100%; MMP 9 inhibition (MMP 9; control inhibitor 1.3 μM): 100%; MMP 10 inhibition (MMP 10 (stromelysin 2); control inhibitor 1.3 μM): 100%; MMP 12 inhibition (MMP 12; control inhibitor 1.3 μM): 100%; MMP 13 inhibition (MMP 13; control inhibitor 1.3 μM): 100%; MMP 14 inhibition (MMP 14; control inhibitor 1.3 μM): 100%
